Assay results published in PMC5896373 (Molecular Pharmacology, 2018).

Key:
[1] = target: T1, chimeric P2X7/1 receptor 279–285 (left flipper) (Homo sapiens, UniProt Q99572, DEL279-281/I21V/M24R/N16P/N25R/N284E/Q22R/R20V/S23N/T19I/T282Y/T283E/V285K/Y26L); parameters: method as in Allsopp et al., 2017; conditions: chimera 279–285; ref Allsopp et al., 2017; cited from earlier work
T1 construct: expressed in transfected cells; host or cells: Xenopus laevis oocytes (cRNA injection)
T1 sequence (Q99572 with tags, fused parts or gaps N16P/T19I/R20V/I21V/Q22R/S23N/M24R/N25R/Y26L/DEL279-281/T282Y/T283E/N284E/V285K): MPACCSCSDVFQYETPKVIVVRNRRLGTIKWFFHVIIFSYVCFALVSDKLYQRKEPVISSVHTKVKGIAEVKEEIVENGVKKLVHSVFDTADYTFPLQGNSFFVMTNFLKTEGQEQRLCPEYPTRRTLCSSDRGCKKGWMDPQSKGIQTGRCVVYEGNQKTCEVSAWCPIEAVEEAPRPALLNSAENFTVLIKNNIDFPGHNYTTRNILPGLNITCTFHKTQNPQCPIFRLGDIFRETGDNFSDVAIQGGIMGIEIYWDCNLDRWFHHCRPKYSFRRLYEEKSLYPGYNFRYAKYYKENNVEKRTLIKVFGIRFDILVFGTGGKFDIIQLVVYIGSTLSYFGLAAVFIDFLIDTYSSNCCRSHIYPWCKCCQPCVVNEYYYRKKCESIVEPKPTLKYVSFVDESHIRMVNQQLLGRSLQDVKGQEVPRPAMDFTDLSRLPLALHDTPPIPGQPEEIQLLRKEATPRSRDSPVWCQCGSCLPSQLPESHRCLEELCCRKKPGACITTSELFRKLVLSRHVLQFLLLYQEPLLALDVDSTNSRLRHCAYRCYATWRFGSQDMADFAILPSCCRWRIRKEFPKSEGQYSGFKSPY

[2] = system: P2X7R left flipper point mutant T282A; assay: Two-electrode voltage clamp of ATP-evoked currents in Xenopus oocytes; type: cell-based, human
Method: (§1) The production of the correct mutations and absence of coding errors was determined by DNA sequencing (Automated ABI Sequencing Service, University of Leicester, UK). cRNA was generated for the mutants and 50 nl (50 ng) was injected into manually defoliculated stage V Xenopus laevis oocytes using an Inject+Matic microinjector (J.A. Gabay, Inject+Matic, Geneva, Switzerland). Injected oocytes were stored at 16°C in ND96 buffer [in millimolar concentrations, NaCl 96, KCl 2, CaCl2 1.8, MgCl2 1, sodium pyruvate 5, and HEPES 5 (pH 7.6) supplemented with 50 μg/ml gentamycin and 50 μg/ml tetracycline]. Three to seven days postinjection two-electrode voltage clamp recordings were made from oocytes bathed in divalent-free ND96 buffer (in millimolar concentrations, NaCl 96, KCl 2, sodium pyruvate 5, HEPES 5, and 0.1 flufenamic acid, pH 7.6). Oocytes were voltage clamped at a holding potential of −60 mV with a GeneClamp500B amplifier (Molecular Devices).
Inhibition by the antagonists was expressed as the percentage of the peak current amplitude of an EC90 concentration of ATP recorded before the application of antagonist (ATP gave reproducible responses to ATP in the absence of antagonist). Inhibition curves were fitted with the Hill equation (variable slope) using GraphPad Prism 6 (GraphPad Software, San Diego, CA). […]

[3] = target: T2, chimeric P2X7R with left flipper 280–284 of P2X4 (Homo sapiens, UniProt Q99572, D280T/I21V/K281R/M24R/N16P/N25R/N284E/Q22R/R20V/S23N/T19I/T282D/T283V/Y26L); conditions: chimera 280–284 of P2X4
T2 sequence (Q99572 1-595 N16P/T19I/R20V/I21V/Q22R/S23N/M24R/N25R/Y26L/D280T/K281R/T282D/T283V/N284E): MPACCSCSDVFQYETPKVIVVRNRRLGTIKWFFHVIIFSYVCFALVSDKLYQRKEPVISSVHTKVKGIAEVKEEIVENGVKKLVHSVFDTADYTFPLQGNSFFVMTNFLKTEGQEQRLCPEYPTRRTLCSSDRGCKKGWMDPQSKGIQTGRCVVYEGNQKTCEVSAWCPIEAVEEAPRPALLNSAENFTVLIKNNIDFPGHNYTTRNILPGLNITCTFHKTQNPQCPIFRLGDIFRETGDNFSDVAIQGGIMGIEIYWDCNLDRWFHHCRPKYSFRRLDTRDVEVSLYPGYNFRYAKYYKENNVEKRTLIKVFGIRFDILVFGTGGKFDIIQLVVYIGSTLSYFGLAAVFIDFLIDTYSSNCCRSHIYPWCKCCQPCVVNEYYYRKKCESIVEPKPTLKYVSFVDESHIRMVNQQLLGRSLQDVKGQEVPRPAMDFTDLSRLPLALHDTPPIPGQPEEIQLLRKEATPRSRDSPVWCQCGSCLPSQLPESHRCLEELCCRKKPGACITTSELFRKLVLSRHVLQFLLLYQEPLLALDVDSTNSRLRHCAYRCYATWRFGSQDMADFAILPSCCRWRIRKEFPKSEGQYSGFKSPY
Method: as §1
Inhibition by the antagonists was expressed as the percentage of the peak current amplitude of an EC90 concentration of ATP recorded before the application of antagonist (ATP gave reproducible responses to ATP in the absence of antagonist). Inhibition curves were fitted with the Hill equation (variable slope) using GraphPad Prism 6 (GraphPad Software, San Diego, CA). […] Individual concentration-response curves were generated for individual experiments, and statistical analysis was carried out on the data generated. […] Data are shown as mean ± S.E.M. In all cases n ≥ 3 for all data points.

| Structure (SMILES) | effect on antagonist sensitivity [1] | effect on antagonist sensitivity relative to P2X7-2Nβ [2] | fold decrease in antagonist sensitivity relative to P2X7-2Nβ [3] |
| --- | --- | --- | --- |
| Cl.Cl.O=C(CC12CC3CC(CC(C3)C1)C2)Nc1cccc2nc(NCCNCCO)ccc12 [AZ10606120, N-[2-[[2-[(2-hydroxyethyl)amino]ethyl]amino]-5-quinolinyl]-2-tricyclo[3.3.1.13,7]dec-1-ylacetamide dihydrochloride] | no effect |  |  |
| COc1ccc(CC(=O)NC(N=C(NC#N)Nc2cccc3ncccc23)C(C)(C)C)cc1OC (stereo not drawn) [A740003, N-[1-[[(cyanoamino)(5-quinolinylamino)methylene]amino]-2,2-dimethylpropyl]-3,4-dimethoxybenzeneacetamide] |  | no effect | ~10 fold |
